assay: in vivo; settings: Wistar Han, rat, iv, 1 mg/kg

Q: For `CCS(=O)(=O)c1ccc(C(NC(C)=O)C(=O)Nc2cc(-c3cc(C#N)cc(F)c3OC)cs2)cc1` (racemic), which Vd at 24 h is on record?
A: 0.34 L/kg

Q: With `CCS(=O)(=O)c1ccc(C(NC(=O)Cc2ccccc2)C(=O)Nc2ccc(C(O)(C(F)(F)F)C(F)(F)F)cc2)cc1` (configuration not stated) as the compound, how does the Vd at 24 h read?
A: 10.2 L/kg

assay: in vivo; settings: Wistar Han, rat, po, 2 mg/kg

Q: With `CCS(=O)(=O)c1ccc(C(NC(C)=O)C(=O)Nc2cc(-c3cc(C#N)cc(F)c3OC)cs2)cc1` (racemic) as the compound, how does the bioavailability at 24 h read?
A: 19%

Q: Which bioavailability at 24 h does the source give for `CCS(=O)(=O)c1ccc(C(NC(=O)Cc2ccccc2)C(=O)Nc2ccc(C(O)(C(F)(F)F)C(F)(F)F)cc2)cc1` (configuration not stated) here?
A: 5%

assay: physchem; settings: 1-octanol/PBS buffer, pH 7.4

Q: Which logD does the source give for `CCS(=O)(=O)c1ccc(CC(=O)Nc2cccc(-c3cccc(Cl)c3)c2)cc1` here?
A: > 4

Q: Which logD does the source give for `CCS(=O)(=O)c1ccc(CC(=O)Nc2ccc(C(C(F)(F)F)C(F)(F)F)cc2)cc1` here?
A: 3.9

Q: Which logD does the source give for `CCS(=O)(=O)c1ccc(C(NC(=O)Cc2ccncn2)C(=O)Nc2ccc(C(O)(C(F)(F)F)C(F)(F)F)cc2)cc1` (configuration not stated) here?
A: 2.8

Q: With `CCS(=O)(=O)c1ccc(CC(=O)Nc2ccc(C(C)(C)C#N)cc2)cc1` as the compound, how does the logD read?
A: 2.5

Q: Which logD does the source give for `CCS(=O)(=O)c1ccc(C(NC(=O)OC)C(=O)Nc2ccc(C(O)(C(F)(F)F)C(F)(F)F)cc2)cc1` (configuration not stated) here?
A: 3.6

Q: For `CCS(=O)(=O)c1ccc(C(NC(=O)NC)C(=O)Nc2ccc(C(O)(C(F)(F)F)C(F)(F)F)cc2)cc1` (configuration not stated), which logD is on record?
A: 3.2

Q: For `CCS(=O)(=O)c1ccc(CC(=O)Nc2ccc(C(O)(C(F)(F)F)C(F)(F)F)cc2)cc1`, which logD is on record?
A: 3.6

Q: Which logD does the source give for `CCS(=O)(=O)c1ccc(CC(=O)Nc2ccc(C(OC)(C(F)(F)F)C(F)(F)F)cc2)cc1` here?
A: 4

Q: Which logD does the source give for `CCS(=O)(=O)c1ccc(C(NC(=O)CC(C)(C)O)C(=O)Nc2ccc(C(O)(C(F)(F)F)C(F)(F)F)cc2)cc1` (configuration not stated) here?
A: 3.3

Q: For `CCS(=O)(=O)c1ccc(C(NC(=O)c2ccccc2)C(=O)Nc2ccc(C(O)(C(F)(F)F)C(F)(F)F)cc2)cc1` (configuration not stated), which logD is on record?
A: > 4

Q: For `CCS(=O)(=O)c1ccc(C(NC(=O)Cc2ccccn2)C(=O)Nc2ccc(C(O)(C(F)(F)F)C(F)(F)F)cc2)cc1` (configuration not stated), which logD is on record?
A: 3.3

Q: For `CCS(=O)(=O)c1ccc(C(NC(=O)CC(C)C)C(=O)Nc2ccc(C(O)(C(F)(F)F)C(F)(F)F)cc2)cc1` (configuration not stated), which logD is on record?
A: > 4

Q: With `CCS(=O)(=O)c1ccc(CC(=O)Nc2ccc(C(C)C)cc2)cc1` as the compound, how does the logD read?
A: 3.5

Q: With `CCS(=O)(=O)c1ccc(C(NS(C)(=O)=O)C(=O)Nc2ccc(C(O)(C(F)(F)F)C(F)(F)F)cc2)cc1` (configuration not stated) as the compound, how does the logD read?
A: 2.7

Q: With `CCS(=O)(=O)c1ccc(C(N)C(=O)Nc2ccc(C(O)(C(F)(F)F)C(F)(F)F)cc2)cc1` (configuration not stated) as the compound, how does the logD read?
A: 2.8

Q: With `CCS(=O)(=O)c1ccc(C(NC(=O)Cc2ccccc2)C(=O)Nc2ccc(C(O)(C(F)(F)F)C(F)(F)F)cc2)cc1` (configuration not stated) as the compound, how does the logD read?
A: 4

Q: Which logD does the source give for `CCS(=O)(=O)c1ccc(CC(=O)Nc2ccc(-c3cccc(Cl)c3)cc2)cc1` here?
A: > 4

Q: Which logD does the source give for `CCS(=O)(=O)c1ccc(C(NC(=O)Cc2cccnn2)C(=O)Nc2ccc(C(O)(C(F)(F)F)C(F)(F)F)cc2)cc1` (configuration not stated) here?
A: 2.5

Q: For `CCS(=O)(=O)c1ccc(C(NC(=O)CCc2ccccc2)C(=O)Nc2ccc(C(O)(C(F)(F)F)C(F)(F)F)cc2)cc1` (configuration not stated), which logD is on record?
A: > 4

Q: With `CCS(=O)(=O)c1ccc(CC(=O)Nc2cc(-c3cccc(Cl)c3)cs2)cc1` as the compound, how does the logD read?
A: > 4.1

Q: For `CCS(=O)(=O)c1ccc(CC(=O)Nc2ccc([C@H](O)C(F)(F)F)cc2)cc1`, which logD is on record?
A: 2.1

Q: Which logD does the source give for `CCS(=O)(=O)c1ccc(C(NC(=O)Cc2ccnnc2)C(=O)Nc2ccc(C(O)(C(F)(F)F)C(F)(F)F)cc2)cc1` (configuration not stated) here?
A: 2.9

assay: in vitro; settings: human, Caco-2

Q: With `CCS(=O)(=O)c1ccc(C(NC(C)=O)C(=O)Nc2cc(-c3cc(C#N)cc(F)c3OC)cs2)cc1` (racemic) as the compound, how does the Papp read?
A: 0.3 ×10⁻⁶ cm/s

Source: ChEMBL document CHEMBL4304769, “Discovery of Potent and Orally Bioavailable Inverse Agonists of the Retinoic Acid Receptor-Related Orphan Receptor C2” (ACS Med Chem Lett, 2019)
